How the values were obtained:
human TRPV1 [1] = molecular target: T1, human TRPV1 (Homo sapiens, UniProt Q8NER1); test: Capsaicin-based assay, Protocol 2 (TRPV1/CHO cells, Fluo-4, FLIPR); assay type: cell-based; conditions: capsaicin 100 nM final, mean ± SEM, number of trials in parentheses, read-out: TRPV1 IC50 Potency, Human Capsaicin CHO (hCAP-CHO)
T1 construct: using primers designed surrounding the complete hTRPV1 open reading frame; expressed in transfected cells; host or cells: CHO-K1 cells stably transfected with pcDNA3.1(-)-hVR1 plasmid
Text: The TRPV1/CHO cell line was generated as described below. […] The resulting PCR products were purified from agarose gels using Gel Band Purification Kit (GE Healthcare Bioscience) and were subcloned into pCR-Blunt vector (Invitrogen). The cloned cDNA was fully sequenced using a fluorescent dye-terminator reagent (BigDye Terminator ver3.1 Cycle Sequencing Kit, Applied Biosystems) and ABI Prism 3100 genetic analyzer (Applied Biosystems). The pCR-Blunt vector containing the hTRPV1 cDNA was subjected to restriction digestion with EcoRI. The restriction fragment was subcloned into expression vector pcDNA3.1 (-) (Invitrogen) and named pcDNA3.1 (-)-hVR1 plasmid. The sequence of the cDNA encoding TRPV1 is available at GenBank accession number AJ277028. […] The cells were transfected with the pcDNA3.1 (-)-hVR1 plasmid using FuGENE6 (Roche) according to the manufacturer's protocol. 24 hr after transfection, neomycin-resistant cells were selected using 1 mg/mL G418 (Nacalai Tesque). […] The cells expressing hTRPV1 were cultured in the growth medium supplemented with 1 mg/mL G418. […] Subsequently, the cells were loaded by incubation in 0.1 mL of wash buffer containing Fluo-4 at 3 μM final concentration. After 1 hour, the cells were washed twice with 0.2 mL wash buffer and resuspended in 0.1 mL wash buffer. The plates were then transferred to a Fluorescence Imaging Plate Reader (Molecular Devices). Fluorescence intensity was monitored for 15 seconds to establish a baseline. […] The final concentration of the compound was adjusted to range from 100 μM to 1.5625 μM. […] Data were collected over the entire time course and analyzed using Excel and the curve-fitting formula GraphPad Prism.

human TRPV1 [2] = molecular target: T1, human TRPV1; test: pH-based assay, Protocol 2 (TRPV1/CHO cells, Fura-2 AM, FDSS-3000, pH 5.0-5.1); assay type: cell-based; conditions: H2SO4 agonist, mean ± SEM, number of trials in parentheses, read-out: TRPV1 IC50 Potency, Human pH CHO (hpH-CHO)
Text: For Protocol 2, a Chinese Hamster Ovary cell line (CHO) that has been engineered to constitutively express human recombinant TRPV1 was used (TRPV1/CHO cells). The TRPV1/CHO cell line was generated as described below.
The resulting PCR products were purified from agarose gels using Gel Band Purification Kit (GE Healthcare Bioscience) and were subcloned into pCR-Blunt vector (Invitrogen). The cloned cDNA was fully sequenced using a fluorescent dye-terminator reagent (BigDye Terminator ver3.1 Cycle Sequencing Kit, Applied Biosystems) and ABI Prism 3100 genetic analyzer (Applied Biosystems). The pCR-Blunt vector containing the hTRPV1 cDNA was subjected to restriction digestion with EcoRI. The restriction fragment was subcloned into expression vector pcDNA3.1 (−) (Invitrogen) and named pcDNA3.1 (−)-hVR1 plasmid. The sequence of the cDNA encoding TRPV1 is available at GenBank accession number AJ277028.
CHO-K1 cells were maintained in growth medium consisting of α-MEM, 10% FBS (Hyclone), and 100 IU/mL of penicillin-100 μg/mL of streptomycin mixed solution (Nacalai Tesque, Japan) at 37° C. in an environment of humidified 95% air and 5% CO2. The cells were transfected with the pcDNA3.1 (−)-hVR1 plasmid using FuGENE6 (Roche) according to the manufacturer's protocol. 24 hr after transfection, neomycin-resistant cells were selected using 1 mg/mL G418 (Nacalai Tesque). After 2 weeks, individual colonies were picked, expanded, and screened for the expression of hTRPV1 in the capsaicin-induced Ca^2+ influx assay (see below) with a FLIPR (Molecular Devices). A clone with the largest Ca^2+ response to capsaicin was selected and re-cloned by the same procedure. The cells expressing hTRPV1 were cultured in the growth medium supplemented with 1 mg/mL G418.
TRPV1/CHO cells were seeded in the 96-well clear-bottom black-wall plate (Nunc) at densities of 1-2×10^4 cells/well and grown in 100 μL of culture medium (alpha-MEM supplemented with 10% FBS, 20 mM HEPES, 1 mg/mL geneticin and 1% antibiotic-antimycotic mixed stock solution) for 1-2 days before the experiment.
Different agonist solutions with sulfuric acid concentrations of from 15 mM to 18 mM (see FIG. 1) were prepared by diluting 1M sulfuric acid with measuring buffer. The different sulfuric acid concentrations in the agonist solutions were selected such that a 1:4 dilution would result in a final sulfuric acid concentration of between 3.0 mM to 3.6 mM, respectively, as indicated in FIG. 1.
The cells were stimulated using 3.0 mM (well number B1-6), 3.1 mM (C1-6), 3.2 mM (D1-6), 3.3 mM (E1-6), 3.4 mM (F1-6), 3.5 mM (G1-6), or 3.6 mM (H1-6) H2SO4 or pH 7.2 measuring buffer without H2SO4 (A1-6) (FIG. 2).
(1) Culture medium was removed using an 8-channel-pipette (Rainin, USA) from the 96-well plate and the wells were refilled with 100 μL of loading buffer (20 mM HEPES, 115 mM NaCl, 5.4 mM KCl, 0.8 mM MgCl2, 1.8 mM CaCl2, 13.8 mM D-glucose, 2.5 mM probenecid, pH 7.4) containing 5 μM Fura-2 AM (Dojin, Japan).
(2) The 96-well plate was incubated at 37° C. for 45 min.
(3) The loading buffer was removed from each well. The cells were subsequently washed twice with 150 μL of measuring buffer (20 mM HEPES, 115 mM NaCl, 5.4 mM KCl, 0.8 mM MgCl2, 5.0 mM CaCl2, 13.8 mM D-glucose, 0.1% BSA, pH 7.4) (no probenecid). The wells were then refilled with 80 μL of measuring buffer.
(4) After an incubation at 4° C. for 15 min, the 96-well plate was transferred to FDSS-3000 (Hamamatsu Photonics, Japan).
(5) The Fura-2 fluorescent intensity was monitored at a wavelength of 340 nm and at 380 nm, respectively, at a rate of 0.5 Hz for a total of 240 seconds.

T1 sequence (Q8NER1 whole entry): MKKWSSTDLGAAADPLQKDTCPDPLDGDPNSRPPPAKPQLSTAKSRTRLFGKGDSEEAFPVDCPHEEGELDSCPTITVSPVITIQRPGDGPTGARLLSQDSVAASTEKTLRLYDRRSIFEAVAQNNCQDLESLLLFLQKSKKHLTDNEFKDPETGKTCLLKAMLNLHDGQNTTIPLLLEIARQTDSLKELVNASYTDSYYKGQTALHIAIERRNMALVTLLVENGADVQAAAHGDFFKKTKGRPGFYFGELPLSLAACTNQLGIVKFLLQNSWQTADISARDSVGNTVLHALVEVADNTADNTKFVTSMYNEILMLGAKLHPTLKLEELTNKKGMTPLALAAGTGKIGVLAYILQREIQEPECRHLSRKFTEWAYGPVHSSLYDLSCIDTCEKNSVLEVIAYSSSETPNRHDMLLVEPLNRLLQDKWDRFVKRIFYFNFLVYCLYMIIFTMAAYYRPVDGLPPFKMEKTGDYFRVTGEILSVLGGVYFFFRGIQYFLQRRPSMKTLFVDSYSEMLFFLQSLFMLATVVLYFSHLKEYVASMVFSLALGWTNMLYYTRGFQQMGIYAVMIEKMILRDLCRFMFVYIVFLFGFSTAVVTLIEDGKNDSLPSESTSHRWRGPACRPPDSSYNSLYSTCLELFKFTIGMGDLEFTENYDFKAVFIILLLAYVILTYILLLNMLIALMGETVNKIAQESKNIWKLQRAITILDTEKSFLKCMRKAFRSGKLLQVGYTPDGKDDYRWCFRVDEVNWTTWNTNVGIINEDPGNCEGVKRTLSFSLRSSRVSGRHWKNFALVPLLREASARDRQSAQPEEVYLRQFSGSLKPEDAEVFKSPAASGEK

Row | SMILES | IC50 (human TRPV1 [1]) | IC50 (human TRPV1 [2])
1 | O=C(Nc1ccc(C(F)(F)F)c(Cl)c1)N1CC=C(c2ncc(CO)cc2Cl)CC1 [Compound S2] | 205 ± 35.4 nM | 31.9 ± 2.5 nM
2 | CC(O)c1cnc(C2=CCN(C(=O)Nc3ccc(C(F)(F)F)cn3)CC2)c(Cl)c1 (stereo not drawn) [Compound B6] | 922 ± 205 nM | 362 ± 69.1 nM
3 | COCc1cnc(C2=CCN(C(=O)Nc3ccc(S(=O)(=O)C(F)(F)F)cc3)CC2)c(Cl)c1 [Compound A3] | 414 ± 99.6 nM | 310 ± 38.9 nM
4 | CN(C)c1ccc(NC(=O)N2CC=C(c3ncc(CO)cc3Cl)CC2)cc1C(F)(F)F [Compound X1] | 74.4 ± 11.5 nM | 18.8 ± 1.6 nM
5 | O=C(Nc1ccc(C(F)(F)F)c(F)c1)N1CC=C(c2ncc([C@@H](O)CO)cc2Cl)CC1 [Compound W5] | 423 ± 123 nM | 71.2 ± 10.5 nM
6 | O=C(Nc1ccc(C(F)(F)F)cc1)N1CC=C(c2ncc([C@@H](O)CO)cc2Cl)CC1 [Compound L3] | 37.1 ± 14.8 nM | 38.3 ± 4 nM
7 | O=C(Nc1nc2ccc(Cl)cc2s1)N1CC=C(c2ncc([C@@H](O)CO)cc2Cl)CC1 [Compound P3] | 183 ± 38.1 nM | 28.5 nM
8 | O=C(Nc1ccc(C(F)(F)F)cn1)N1CCC(F)(c2ncc([C@@H](O)CO)cc2Cl)CC1 [Compound D4] | 69.6 ± 6.9 nM | 54.8 nM
9 | O=C(Nc1nc2ccc(Cl)cc2s1)N1CC=C(c2ncc([C@H](O)CO)cc2Cl)CC1 [Compound W1] | 68.9 ± 18.4 nM | 9.3 ± 1.9 nM
10 | O=C(Nc1nc2ccc(Cl)cc2s1)N1CC=C(c2ncc(CO)cc2Cl)CC1 [Compound V2] | 234 ± 44.6 nM | 83.2 ± 7.6 nM
11 | O=C(Nc1ccc(Cl)c(C(F)(F)F)c1)N1CC=C(c2ncc([C@H](O)CO)cc2F)CC1 [Compound K2] | 141 ± 41.9 nM | 47.2 ± 6.7 nM
12 | O=C(Nc1ccc(S(=O)(=O)C(F)(F)F)cc1)N1CC=C(c2ncc(CO)cc2Cl)CC1 [Compound C2] | 98.7 ± 33.9 nM | 41.8 ± 3.8 nM
13 | Cc1ccc(NC(=O)N2CC=C(c3ncc([C@H](O)CO)cc3Cl)CC2)cc1C(F)(F)F [Compound I5] | 709 ± 94.1 nM | 118 ± 27.5 nM
14 | O=C(Nc1ccc(C(F)(F)F)cn1)N1CC=C(c2ncc([C@@H](O)CO)cc2Cl)CC1 [Compound N3, (R)-4-(3-chloro-5-(1,2-dihydroxyethyl)pyridin-2-yl)-N-(5-(trifluoromethyl)pyridin-2-yl)-5,6-dihydropyridine-1(2H)-carboxamide] | 161 ± 41.7 nM | 223 ± 14 nM
15 | CC(C)Oc1ccc(NC(=O)N2CC=C(c3ncc(CO)cc3Cl)CC2)cc1C(F)(F)F [Compound I2] | 122 ± 7.1 nM | 18 ± 1 nM
16 | O=C(Nc1ccc(C(F)(F)F)c(Cl)c1)N1CC=C(c2ncc(CO)cc2Cl)CC1 [Compound L2] | 153 ± 24.4 nM | 57.4 ± 9.1 nM
17 | CCOc1cc(NC(=O)N2CC=C(c3ncc(CO)cc3Cl)CC2)ccc1C(F)(F)F [Compound N2] | 161 ± 16.6 nM | 27.3 ± 2.6 nM
18 | CC(C)(O)c1cnc(C2=CCN(C(=O)Nc3ccc(C(F)(F)F)cc3)CC2)c(Cl)c1 [Compound X2] | 248 ± 25.1 nM | 81.1 ± 10.5 nM
19 | O=C(Nc1ccc(C(F)(F)F)cn1)N1CC=C(c2ncc(CO)cc2Cl)CC1 [Compound Z2] | 401 ± 122 nM | 248 ± 45.3 nM
20 | O=C(Nc1nc2ccc(F)cc2s1)N1CC=C(c2ncc(CO)cc2Cl)CC1 [Compound W2] | 245 ± 34.4 nM | 241 ± 34.9 nM
21 | O=C(Nc1ccc(Br)c(C(F)(F)F)c1)N1CC=C(c2ncc([C@H](O)CO)cc2Cl)CC1 [Compound P2] | 173 ± 40.3 nM | 44.4 nM
22 | O=C(Nc1nc2ccc(F)cc2s1)N1CCC(F)(c2ncc([C@H](O)CO)cc2Cl)CC1 [Compound L1, (S)-4-(3-chloro-5-(1,2-dihydroxyethyl)pyridin-2-yl)-4-fluoro-N-(6-fluorobenzo[d]thiazol-2-yl)piperidine-1-carboxamide] | 35.3 ± 12 nM | 27.5 ± 3.4 nM
23 | O=C(Nc1ccc(C(F)(F)F)c(F)c1)N1CC=C(c2ncc(CO)cc2Cl)CC1 [Compound M2] | 156 ± 5.6 nM | 42 ± 9.1 nM

Further compounds by falling IC50 (human TRPV1 [1]), results first:

Row | IC50 (human TRPV1 [1]) | IC50 (human TRPV1 [2]) | SMILES
24 | 66.2 ± 7.5 nM | 18.6 ± 2.8 nM | O=C(Nc1nc2ccc(Cl)cc2s1)N1CC=C(c2ncc([C@H](O)CO)cc2F)CC1 [Compound C4]
25 | 62.8 ± 11.4 nM | 16.5 ± 3.3 nM | O=C(Nc1nc2ccc(Cl)cc2s1)N1CCC(F)(c2ncc([C@H](O)CO)cc2Cl)CC1 [Compound Z4]
26 | 51 ± 16.4 nM | 8.1 ± 0.7 nM | O=C(Nc1ccc(S(=O)(=O)C(F)(F)F)cc1)N1CC=C(c2ncc([C@H](O)CO)cc2Cl)CC1 [Compound Q1]
27 | 49.8 ± 12.1 nM | 9 ± 0.8 nM | O=C(Nc1ccc(C(F)(F)F)c(F)c1)N1CCC(F)(c2ncc([C@@H](O)CO)cc2F)CC1 [Compound A6]
28 | 35.6 ± 8.9 nM | 22.4 nM | O=C(Nc1nc2ccc(Cl)cc2s1)N1CCC(F)(c2ncc([C@H](O)CO)cc2F)CC1 [Compound W3]
29 | 23.8 ± 6.8 nM | 12.9 nM | O=C(Nc1ccc(C(F)(F)F)c(Cl)c1)N1CCC(F)(c2ncc([C@@H](O)CO)cc2Cl)CC1 [Compound T3]
30 | 17.7 ± 2 nM | 9.2 nM | Cc1cc(NC(=O)N2CC=C(c3ncc([C@H](O)CO)cc3F)CC2)ccc1OC(F)(F)F [Compound S3]
31 | 16.5 ± 4.1 nM | 0.9 nM | CC(C)(C)c1ccc(NC(=O)N2CC=C(c3ncc([C@H](O)CO)cc3F)CC2)cc1 [Compound D1]
32 | 14.2 ± 1.4 nM | 5.8 nM | O=C(Nc1ccc(OC(F)(F)F)cc1)N1CCN(c2ncc([C@H](O)CO)cc2Cl)CC1 [Compound L6, (S)-4-(3-chloro-5-(1,2-dihydroxyethyl)pyridin-2-yl)-N-(4-(trifluoromethoxy)phenyl)piperazine-1-carboxamide]
33 | 7 ± 1 nM | 3.5 ± 1 nM | O=C(Nc1ccc(C(F)(F)F)cc1)N1CCN(c2ncc([C@H](O)CO)cc2Cl)CC1 [Compound M6, (S)-4-(3-chloro-5-(1,2-dihydroxyethyl)pyridin-2-yl)-N-(4-(trifluoromethyl)phenyl)piperazine-1-carboxamide]
